Assay results taken from patent publication US12171769B2, “Methods, compositions, and kits for treating and/or preventing a side effect associated with radiation and/or chemotherapy exposure” (BioMimetix JV, LLC, priority 2017, dated 2024).
Read-outs that look alike come from different tables or passages of the source.

Tests used:
[1] = TMZ in combination with RT; cited from earlier work
[2] = administered orally on an empty stomach; cited from earlier work
[3] = tested on: platelet count
Description: (§1) Four different loading doses were tested, which were: 7, 14, 28 and 42 mg, and the maintenance doses were half of the respective loading dose. The loading dose was administered prior to chemoradiation, and for the duration of treatment the respective maintenance doses were administered twice a week (i.e., a patient administered a 7 mg loading dose received two separate maintenance doses of 3.5 mg each week for 8 weeks.) The primary focus of this study is to determine the maximum tolerated dose of four dose levels. […] All subjects have a diagnosis of glioblastoma (WHO grade IV) and mean age is 62.7 years (range 54 years to 80 years).
In patients receiving temozolomide the standard of care is to stop therapy for patients developing a platelet count below 100,000.

[4] = stored at 27° C.; cited from earlier work
[5] = tested on: leukocyte-endothelial cell interactions; settings: for Effect, repeated measures ANOVA of shear rates / Effect, repeated measures ANOVA of vessel diameter / Effect, repeated measures ANOVA of blood velocity: vs baseline (saline)
Description: (§2) MnBuOE synthesis and administration: MnBuOE was synthesized as previously described. […] Mouse injections were administered subcutaneously, with MnBuOE dissolved in sterile saline. Mice received an initial dose of 0.2, 0.6, or 2.0 mg/kg, followed by three times per week (t.i.w.) maintenance doses of one-half of the loading dose (i.e., 0.1, 0.3, or 1.0 mg/kg, respectively) (termed 2/1, 0.6/0.3 and 0.2/0.1 dosing schedules).
(§3) A collimating cone that produced a 15 mm×40 mm radiation field was used to target the radiation beam to the salivary gland and oral cavity. The RT field included all major and minor salivary glands (located primarily in the neck region of mice), and the oral mucosa, including glands of the cheeks, lips and tongue. The target tissues were localized within the radiation field with a source-to-subject distance of 30.76 cm, using fluoroscopy at 40 kVp and 2.5 mA with a 2 mm Al filter. […] Control mice were anesthetized but not imaged fluoroscopically or irradiated.
Mice were anesthetized with 80/8 mg/kg ketamine/xylazine mixture. Acridine orange (Sigma-Aldrich, St. Louis, MO) was injected intravenously (100 μl of 0.1% acridine orange in saline). The ventral surface of the tongue was placed on a glass cover slip before mounting the mouse onto a Zeiss Observer. Z1 (Carl Zeiss A G, Oberkochen, Germany) inverted microscope equipped with Zeiss Filter Set 38.
Fluorescent excitation was performed at 470 nm, and video was obtained at 525 nm using a 40× objective. Two separate regions with at least four veins in the […] range were identified, and a 60-120 second long video at 5 frames-per-second was obtained using Zen Imaging Software (Carl Zeiss A G, Oberkochen, Germany). Mice were kept warm while anesthetized using a heated stage.
Leukocyte-endothelial cell interaction analysis: All video analysis was performed in a blinded fashion. Rolling leukocytes were defined as cells that marginated along the vessel wall and were clearly dissociated from the bulk blood flow. Four vessels were analyzed per mouse. Leukocyte counting was repeated in triplicate for each vessel and averaged to obtain the flux of rolling leukocytes (Frolling). Vessel diameter (D) and the velocity of at least one free-flowing leukocyte(s) (VL) were also measured. A pseudo shear rate (gs) was also calculated for each vessel as: gs=8VL/D. These methods have been described previously. (18)

[6] = tested on: mucositis
From the text: Animals: For normal tissue studies, six-to-eight week-old female C57B1/6 mice were used (Jackson Laboratory, Bar Harbor, ME). […] Mice were group housed in a barrier facility and allowed to acclimate to their new environment for at least one week before experiments.
Mucositis evaluation using fluorescence molecular tomography: As reported previously, we used ProSense 750EX (Perkin Elmer, Waltham, MA) to detect mucositis. […] The ProSense 750EX signal was quantified using TrueQuant software (Perkin Elmer Life and Analytical Sciences, Downers Grove, IL).

[7] = tested on: xerostomia; settings: 11 weeks post-RT (9 Gy); 2/1 mg/kg MnBuOE; vs unirradiated control
Description: Xerostomia quantification by stimulating saliva production: Mice were injected intraperitoneally with 3 μg carbomylcholine chloride (Sigma) dissolved in sterile phosphate-buffered saline. Salivation began 2 minutes after injection. Saliva was collected via pipette for 4 minutes. The volume was measured gravimetrically, assuming a density of 1 g/mL.

[8] = tested on: FaDu tumors; settings: MnBuOE 1.5 mg/kg b.i.d.; five fractions of radiation (5-10 Gy/fraction); previous work (13); cited from earlier work
[9] = tested on: cognitive function; settings: eight subjects, before vs after concurrent chemoradiation (8 weeks)
Description: as §1
Cognitive testing included Hopkins Verbal Learning Test-Revised (HVLT-R), Trails Making A and B Tests, and Controlled Oral Wood Association Test (COWA). […] This is notable because these are the primary cognitive tests that reveal poorer performance in multiple brain mestastases patients after whole brain radiation therapy.

[10] = tested on: normal tissue injury following RT+cisplatin
Description: Mice were treated with 1×9Gy+6 mg/kg cisplatin.
as §3
Mucositis evaluation using fluorescence molecular tomography: As reported previously, we used ProSense 750EX (Perkin Elmer, Waltham, MA) to detect mucositis. ProSense 750EX is a near-infrared (NIR) imaging agent that is cleaved by cathepsins, a family of enzymes that are expressed during inflammation, (17). Mice were injected intravenously with 100 μL ProSense 750EX. Twenty-four hours after injection, mice were anesthetized via isoflurane and imaged using the Visen FMT 2500LX (Perkin Elmer). The ProSense 750EX signal was quantified using TrueQuant software (Perkin Elmer Life and Analytical Sciences, Downers Grove, IL).

[11] = in vivo, 1.5 mg/kg
From the text: The magnitude of such oxidative modification is directly related to the levels of major reactive species involved in the process: H2O2 and MnBuOE.

[12] = tested on: GSH/GSSG; settings: MnBuOE 0.2 mg/kg 24 hours prior to RT (9 Gy); 24 hours post-RT
Description: as §2

[13] = tested on: FaDu (human pharyngeal carcinoma) cells
Description: For tumor control studies, female nu/nu mice were obtained from the Duke University Breeding Facility. Mice were group housed in a barrier facility and allowed to acclimate to their new environment for at least one week before experiments.
Tumor growth delay study: FaDu (human pharyngeal carcinoma) cells were obtained from the Duke University Cell Culture facility and were confirmed to be free of mycoplasma and known rodent pathogens. Cells were grown in Dulbecco's modified Eagle's medium with 10% fetal bovine serum. Mice were injected s.c. in the right flank with 3×10^6 cells suspended in 100 ml serum-free media. Seven days after implantation mice were randomized to treatment groups that received either MnBuOE (0.6 mg/kg loading dose followed by t.i.w. 0.3 mg/kg (loading/3× weekly maintenance) MnBuOE or an equivalent volume of saline. Tumors were measured daily with calipers and the volume was calculated using the equation V=(A^2×B×π)/6, where A is the shortest diameter and B is the longest diameter. As tumors reached 200 mm^3, they randomized into radiation treatment groups consisting of three daily fractions of radiation (6, 9, 12, 15 or 17 Gy/fraction) administered on three consecutive days. Cisplatin (6 mg/kg; APP pharmaceuticals, Schaumberg, IL) was injected intraperitoneally four hours prior to the first radiation fraction. […]

**Q.** What does the source list for `Cn1nnc2c(C(N)=O)ncn2c1=O` [TMZ, 8-Carbamoyl-3-methylimidazol[5,1-d]-1,2,3,5-tetrazine-4-(3H)-one]?
**A.** Grade 3/4 non-hematological toxicity: Fatigue [1]: 7%; Grade 3/4 non-hematological toxicity: infection [1]: 3%; Grade 3/4 non-hematological toxicity: nausea and vomiting with a 5HT3-RA [1]: < 1%; Grade 3/4 non-hematological toxicity: other constitutional symptoms [1]: 2%; Grade 3/4 non-hematological toxicity: rash and dermatologic side effects [1]: 1%; Grade 3/4 non-hematological toxicity: vision [1]: 1%; Non-hematological grade 2 toxicity: Fatigue [1]: 26%; Non-hematological grade 2 toxicity: infection [1]: 1%; Non-hematological grade 2 toxicity: nausea and vomiting [1]: 13%; Non-hematological grade 2 toxicity: other constitutional symptoms [1]: 7%; Non-hematological grade 2 toxicity: rash and dermatologic side effects [1]: 9%; Non-hematological grade 2 toxicity: vision [1]: 14%; bioavailable [2]: approximately 100%; patients who developed platelets below 100,000 ([3]; temozolomide + radiation without BMX-001, n=20): 9 out of 20

**Q.** Which “stability of reconstituted solution” value [4] does the source give for `N.N.[Cl][Pt][Cl]` [cisplatin] here?
**A.** 20 h

**Q.** Which results are given for “manganese butoxyethyl pyridyl porphyrin [BMX-001]”?
**A.** Effect, repeated measures ANOVA of shear rates ([5]; MnBuOE + RT (9 Gy)): −0.83; Effect, repeated measures ANOVA of vessel diameter ([5]; MnBuOE + RT (9 Gy)): 0.002; Effect, repeated measures ANOVA of blood velocity ([5]; MnBuOE + RT (9 Gy), 24 hours post-RT): 0.01; Effect, repeated measures ANOVA of shear rates ([5]; MnBuOE alone): −20.88; Effect, repeated measures ANOVA of vessel diameter ([5]; MnBuOE alone): 0.009; Effect, repeated measures ANOVA of blood velocity ([5]; MnBuOE alone, 24 hours post sham RT): −0.00; leukocyte rolling ([5]; MnBuOE treatment alone): without increasing leukocyte rolling; mean number of rolling leukocytes ([5]; combination of 0.2/0.1 MnBuOE and RT, 24 hours post-RT): decreases; NIR signal (mucositis signal) ([6]; day 11 post-RT, 9 Gy, 2/1 mg/kg MnBuOE s.c. (loading/t.i.w. maintenance), vs 0 Gy control): significantly increased; NIR signal (mucositis signal) ([6]; unirradiated mice, 2/1 mg/kg MnBuOE): did not show an appreciable NIR signal; stimulated salivation (xerostomia) [7]: significant (p<0.05) decreases; patients who developed platelet counts below 100,000 ([3]; BMX-001+temozolomide + radiation, loading doses 7 mg to 28 mg/subject, N=9): None of the nine; dose-modifying effect (TCD50 curve) [8]: 1.3; Trails Making B Test [9]: faster scores; performance on Hopkins Verbal Learning Test-Revised (HVLT-R) ([9]; loading 7-28 mg, half dose twice a week): no degradation of performance; NIR signal (mucositis) ([10]; 1×9 Gy + 6 mg/kg cisplatin, MnBuOE 0.6 mg/kg loading, t.i.w. 0.3 mg/kg for five weeks, vs saline plus RT+cisplatin): significantly less NIR signal; xerostomia (saliva production) ([10]; 10, 11 and 12 weeks, MnBuOE for the first five weeks after RT+cisplatin, data not shown): trend towards reduced xerostomia; body weight ([10]; 10 weeks post-RT+cisplatin, MnBuOE 0.6/0.3 mg/kg, vs unirradiated control mice): not significantly different; long-term ulcerations and moist desquamation in the irradiated area ([10]; RT+cisplatin, MnBuOE vs saline): lessened; MnBuOE concentration in the tumor [11]: 1.5 to 2 µM; GSH/GSSG lower than the 0 Gy MnBuOE tongue levels [12]: 4%; Kaplan-Meier analysis (time to tripling of tumor volume), MnBuOE vs saline treated mice ([13]; 0.6/0.3 mg/kg, at any radiation dose): no significant differences; slope of the dose response curve of tumor inhibition (AUC of dynamic treatment effect curves), MnBuOE vs control arm ([13]; p-value=0.47): no significant difference
